Test results taken from PMC12566046, “Arylpiperazinyl-Benzocycloheptapyrrole-Carboxamides Endowed with Dual Anticancer and Antiviral Activities” (Molecules, 2025).
Where two headings read alike, the source gives them in different places.

Tests used:
[1] = test system: MDA-MB-468 (breast cancer); assay: NCI-60 five-dose assay; format: cell-based, human; conditions: five-dose screen
in vitro = conditions: dog
M14 (melanoma cell line) = assay: NCI-60 five-dose assay
[2] = test system: SK-MEL-2 (melanoma cell line); assay: NCI-60 five-dose assay
[3] = test system: SK-MEL-5 (melanoma cell line); assay: NCI-60 five-dose assay
[4] = test system: HCC-2998 (colon cancer cell line); assay: NCI-60 five-dose assay; format: cell-based, human; conditions: five doses (10^−4–10^−8 M), read-out: Growth inhibition 50 (GI50)
[5] = test system: SK-MEL-28 (melanoma cell line); assay: NCI-60 five-dose assay
[6] = test system: RXF 393 (renal cancer cells); assay: NCI-60 five-dose assay; format: cell-based, human; conditions: five-dose screen
[7] = test system: UO-31 (renal cancer cell line); assay: NCI-60 single-dose assay; format: cell-based, human
How it was run: (§1)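 NCI-60 one-dose format: each compound is tested at a single dose against human tumour lines for cytotoxic effect.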

[8] = test system: NCI-H23 (non-small cell lung cancer cell line); assay: NCI-60 single-dose assay; format: cell-based, human
How it was run: as §1

[9] = test system: HT29 (colon cancer cell line); assay: NCI-60 single-dose assay; format: cell-based, human
How it was run: as §1

[10] = test system: CAKI-1 (renal cancer cell line); assay: NCI-60 single-dose assay; format: cell-based, human
How it was run: as §1

[11] = test system: COLO 205 (colon cancer cell line); assay: NCI-60 single-dose assay; format: cell-based, human; conditions: human
How it was run: as §1

[12] = test system: MALME-3M (melanoma cell line); assay: NCI-60 single-dose assay; format: cell-based, human; conditions: human
How it was run: as §1

[13] = test system: MDA-MB-231/ATCC (breast cancer cell line); assay: NCI-60 single-dose assay; format: cell-based, human
How it was run: as §1

[14] = test system: SN12C (renal cancer cell line); assay: NCI-60 single-dose assay; format: cell-based, human
How it was run: as §1

[15] = test system: MDA-MB-435 (melanoma cell line); assay: NCI-60 single-dose assay; format: cell-based, human; conditions: Homo sapiens, MDA-MB-435, read-out: growth inhibition (GI%) and cytotoxicity (negative values)
How it was run: as §1

SR (leukemia cell line) = assay: NCI-60 single-dose assay; format: cell-based, human; conditions: human
How it was run: as §1

[16] = test system: NCI-H226 (non-small cell lung cancer cell line); assay: NCI-60 single-dose assay; format: cell-based, human
How it was run: as §1

[17] = test system: HCT-15 (colon cancer cell line); assay: NCI-60 single-dose assay; format: cell-based, human
How it was run: as §1

[18] = test system: RPMI-8226 (leukemia cell line); assay: NCI-60 single-dose assay; format: cell-based, human
How it was run: as §1

[19] = test system: T-47D (breast cancer cell line); assay: NCI-60 single-dose assay; format: cell-based, human
How it was run: as §1

[20] = test system: MCF-7 (breast cancer cell line); assay: NCI-60 single-dose assay; format: cell-based, human
How it was run: as §1

[21] = test system: SK-MEL-2 (melanoma cell line); assay: NCI-60 single-dose assay; format: cell-based, human; conditions: Homo sapiens, SK-MEL-2, read-out: growth inhibition (GI%) and cytotoxicity (negative values)
How it was run: as §1

[22] = test system: NCI-H522 (non-small cell lung cancer cell line); assay: NCI-60 single-dose assay; format: cell-based, human
How it was run: as §1

[23] = test system: K-562 (leukemia cell line); assay: NCI-60 five-dose assay; format: cell-based, human; conditions: read-out: Growth inhibition 50 (GI50)
[24] = test system: LOX IMVI (melanoma cell line); assay: NCI-60 five-dose assay
[25] = test system: IAV strain A/PR/8/34 (H1N1)

O=C(NCCCN1CCN(c2ccccc2)CC1)c1cc2c([nH]1)-c1ccccc1CCC2 [Compound 10, N-(3-(4-Phenylpiperazin-1-yl)propyl)-1,4,5,6-tetrahydrobenzo[6,7]cyclohepta[1,2-b]pyrrole-2-carboxamide]
GI50 ([1]; Homo sapiens): 2.93 µM
CC50 (in vitro): 67.8 µM
GI50 (M14 (melanoma cell line); Homo sapiens, M14, read-out: Growth inhibition 50 (GI50)): 2.78 µM
CC50 (M14 (melanoma cell line); Homo sapiens, M14, read-out: LC50 (molar concentration leading to 50% net cell death)): 44.7 µM
TGI (molar concentration giving total growth inhibition) (M14 (melanoma cell line); M14): 8.51 µM
GI50 ([2]; Homo sapiens, SK-MEL-2, read-out: Growth inhibition 50 (GI50)): 14.9 µM
CC50 ([2]; Homo sapiens, SK-MEL-2, read-out: LC50 (molar concentration leading to 50% net cell death)): 81.3 µM
TGI (molar concentration giving total growth inhibition) ([2]; SK-MEL-2): 34.67 µM
GI50 ([3]; Homo sapiens, SK-MEL-5, read-out: Growth inhibition 50 (GI50)): 2.71 µM
TGI (molar concentration giving total growth inhibition) ([3]; SK-MEL-5): 9.77 µM
GI50 ([4]; Homo sapiens): 2.51 µM
GI50 ([5]; Homo sapiens, SK-MEL-28, read-out: Growth inhibition 50 (GI50)): 2.51 µM
TGI (molar concentration giving total growth inhibition) ([5]; SK-MEL-28): 8.51 µM
GI50 ([6]; Homo sapiens): 2.06 µM
inhibition at 10 µM ([7]; Homo sapiens, UO-31, read-out: growth inhibition (GI%) and cytotoxicity (negative values)): < 60%
inhibition at 10 µM ([8]; Homo sapiens, NCI-H23, read-out: growth inhibition (GI%) and cytotoxicity (negative values)): < 60%
growth inhibition (GI%) and cytotoxicity (negative values) ([9]; human): −2.47%
inhibition at 10 µM ([10]; Homo sapiens, CAKI-1, read-out: growth inhibition (GI%) and cytotoxicity (negative values)): 89.4%
growth inhibition (GI%) and cytotoxicity (negative values) [11]: −58.03%
growth inhibition (GI%) and cytotoxicity (negative values) [12]: −72.64%
inhibition at 10 µM ([13]; Homo sapiens, MDA-MB-231, read-out: growth inhibition (GI%) and cytotoxicity (negative values)): < 60%
inhibition at 10 µM ([14]; Homo sapiens, read-out: growth inhibition (GI%) and cytotoxicity (negative values)): < 60%
inhibition at 10 µM [15]: 75.1%
growth inhibition (GI%) and cytotoxicity (negative values) (SR (leukemia cell line)): −19.75%
inhibition at 10 µM ([16]; Homo sapiens, NCI-H226, read-out: growth inhibition (GI%) and cytotoxicity (negative values)): 75.2%
inhibition at 10 µM ([17]; Homo sapiens, HCT-15, read-out: growth inhibition (GI%) and cytotoxicity (negative values)): 91.2%
inhibition at 10 µM ([18]; Homo sapiens, RPMI-8226, read-out: growth inhibition (GI%) and cytotoxicity (negative values)): < 60%
inhibition at 10 µM ([19]; Homo sapiens, T47D, read-out: growth inhibition (GI%) and cytotoxicity (negative values)): 65.8%
inhibition at 10 µM ([20]; Homo sapiens, MCF7, read-out: growth inhibition (GI%) and cytotoxicity (negative values), MCF-7, 10^−5 M): 80.2%
inhibition at 10 µM [21]: 75%
inhibition at 10 µM ([22]; Homo sapiens, NCI-H522, read-out: growth inhibition (GI%) and cytotoxicity (negative values)): 71.4%
GI50 ([23]; Homo sapiens, K562, five doses (10^−4–10^−8 M)): 2.58 µM
TGI (molar concentration giving total growth inhibition) [24]: 19.5 µM
GI50 ([24]; Homo sapiens, read-out: Growth inhibition 50 (GI50)): 3.62 µM

N-(3-(4-Benzylpiperazin-1-yl)propyl)-2-chloro-1,4,5,6-tetrahydrobenzo[6,7]cyclohepta[1,2-b]pyrrole-2-carboxamide [Compound 11]
GI50 [1]: 2.69 µM
TGI (molar concentration giving total growth inhibition) (M14 (melanoma cell line); M14): 3.55 µM
GI50 (M14 (melanoma cell line); read-out: Growth inhibition 50 (GI50), M14, five doses (10^−4–10^−8 M)): 1.83 µM
CC50 (M14 (melanoma cell line); read-out: LC50 (molar concentration leading to 50% net cell death), M14): 6.92 µM
TGI (molar concentration giving total growth inhibition) ([2]; SK-MEL-2): 20.89 µM
GI50 ([2]; read-out: Growth inhibition 50 (GI50), SK-MEL-2, five doses (10^−4–10^−8 M)): 7.85 µM
CC50 ([2]; read-out: LC50 (molar concentration leading to 50% net cell death), SK-MEL-2): 47.9 µM
TGI (molar concentration giving total growth inhibition) ([3]; SK-MEL-5): 3.09 µM
GI50 ([3]; read-out: Growth inhibition 50 (GI50), SK-MEL-5, five doses (10^−4–10^−8 M)): 1.72 µM
CC50 ([3]; read-out: LC50 (molar concentration leading to 50% net cell death), SK-MEL-5): 5.62 µM
GI50 [4]: 1.73 µM
IAV/MDCK SI ([25]; preliminary screening): 0.30
EC50 ([25]; read-out: IAV/MDCK EC50, preliminary screening (50, 5, 0.5 μM), MDCK): 17.7 µM
TGI (molar concentration giving total growth inhibition) ([5]; SK-MEL-28): 3.31 µM
GI50 ([5]; read-out: Growth inhibition 50 (GI50), SK-MEL-28, five doses (10^−4–10^−8 M)): 1.75 µM
CC50 ([5]; read-out: LC50 (molar concentration leading to 50% net cell death), SK-MEL-28): 6.16 µM
GI50 [6]: 1.96 µM
growth inhibition (GI%) and cytotoxicity (negative values) ([7]; UO-31, 10^−5 M, single dose): 63.12%
growth inhibition (GI%) and cytotoxicity (negative values) ([8]; NCI-H23, 10^−5 M, single dose): – (GI% values < 60% or no cytotoxicity)
growth inhibition (GI%) and cytotoxicity (negative values) ([9]; HT29, 10^−5 M, single dose): 91.03%
growth inhibition (GI%) and cytotoxicity (negative values) ([10]; CAKI-1, 10^−5 M, single dose): 91.53%
growth inhibition (GI%) and cytotoxicity (negative values) ([13]; MDA-MB-231/ATCC, 10^−5 M, single dose): 61.71%
growth inhibition (GI%) and cytotoxicity (negative values) ([14]; 10^−5 M, single dose): – (GI% values < 60% and no cytotoxicity)
growth inhibition (GI%) and cytotoxicity (negative values) ([16]; NCI-H226, 10^−5 M, single dose): 64.87%
growth inhibition (GI%) and cytotoxicity (negative values) ([17]; HCT-15, 10^−5 M, single dose): 84.78%
growth inhibition (GI%) and cytotoxicity (negative values) ([18]; RPMI-8226, 10^−5 M, single dose): 92.04%
growth inhibition (GI%) and cytotoxicity (negative values) ([19]; T-47D, 10^−5 M, single dose): 66.07%
growth inhibition (GI%) and cytotoxicity (negative values) ([20]; MCF-7, 10^−5 M): 90.34%
growth inhibition (GI%) and cytotoxicity (negative values) ([22]; NCI-H522, 10^−5 M, single dose): 82.24%
GI50 ([23]; five doses (10^−4–10^−8 M)): 2.57 µM
TGI (molar concentration giving total growth inhibition) [24]: 5.13 µM
GI50 ([24]; read-out: Growth inhibition 50 (GI50), five doses (10^−4–10^−8 M)): 2.16 µM
CC50 ([24]; read-out: LC50 (molar concentration leading to 50% net cell death)): 15.8 µM
